# Laboratory results from paper PMC6544242, “Development and validation of a multiplex UHPLC-MS/MS method for the determination of the investigational antibiotic against multi-resistant tuberculosis macozinone (PBTZ169) and five active metabolites in human plasma” (PLoS ONE, 2019).
# Tested on: not given
# Conditions: human, 1 h, 10 ng/mL
row,Structure (SMILES),% from t0 [%]
1,O=c1nc(N2CCN(CC3CCCC(O)C3)CC2)sc2c([N+](=O)[O-])cc(C(F)(F)F)cc12 (stereo not drawn) [Met 3-OH],6

# Same assay, conditions: human, 1 h, 20 ng/mL
row,Structure (SMILES),% from t0 [%]
1,O=c1nc(N2CCN(CC3CCCC(O)C3)CC2)sc2c([N+](=O)[O-])cc(C(F)(F)F)cc12 (stereo not drawn) [Met 3-OH],8

# Same assay, conditions: human, 1 h, 50 ng/mL
row,Structure (SMILES),% from t0 [%]
1,O=c1nc(N2CCN(CC3CCCC(O)C3)CC2)sc2c([N+](=O)[O-])cc(C(F)(F)F)cc12 (stereo not drawn) [Met 3-OH],12

# Same assay, conditions: human, 1 h, 100 ng/mL
row,Structure (SMILES),% from t0 [%]
1,O=c1nc(N2CCN(CC3CCCC(O)C3)CC2)sc2c([N+](=O)[O-])cc(C(F)(F)F)cc12 (stereo not drawn) [Met 3-OH],5

# Same assay, conditions: human, 1 h, 200 ng/mL
row,Structure (SMILES),% from t0 [%]
1,O=c1nc(N2CCN(CC3CCCC(O)C3)CC2)sc2c([N+](=O)[O-])cc(C(F)(F)F)cc12 (stereo not drawn) [Met 3-OH],5

# Same assay, conditions: human, 1 h, 500 ng/mL
row,Structure (SMILES),% from t0 [%]
1,O=c1nc(N2CCN(CC3CCCC(O)C3)CC2)sc2c([N+](=O)[O-])cc(C(F)(F)F)cc12 (stereo not drawn) [Met 3-OH],8

# Same assay, conditions: human, 2 h, 10 ng/mL
row,Structure (SMILES),% from t0 [%]
1,O=c1nc(N2CCN(CC3CCCC(O)C3)CC2)sc2c([N+](=O)[O-])cc(C(F)(F)F)cc12 (stereo not drawn) [Met 3-OH],7

# Same assay, conditions: human, 2 h, 20 ng/mL
row,Structure (SMILES),% from t0 [%]
1,O=c1nc(N2CCN(CC3CCCC(O)C3)CC2)sc2c([N+](=O)[O-])cc(C(F)(F)F)cc12 (stereo not drawn) [Met 3-OH],7

# Same assay, conditions: human, 2 h, 50 ng/mL
row,Structure (SMILES),% from t0 [%]
1,O=c1nc(N2CCN(CC3CCCC(O)C3)CC2)sc2c([N+](=O)[O-])cc(C(F)(F)F)cc12 (stereo not drawn) [Met 3-OH],12

# Same assay, conditions: human, 2 h, 100 ng/mL
row,Structure (SMILES),% from t0 [%]
1,O=c1nc(N2CCN(CC3CCCC(O)C3)CC2)sc2c([N+](=O)[O-])cc(C(F)(F)F)cc12 (stereo not drawn) [Met 3-OH],4

# Same assay, conditions: human, 2 h, 200 ng/mL
row,Structure (SMILES),% from t0 [%]
1,O=c1nc(N2CCN(CC3CCCC(O)C3)CC2)sc2c([N+](=O)[O-])cc(C(F)(F)F)cc12 (stereo not drawn) [Met 3-OH],1

# Same assay, conditions: human, 2 h, 500 ng/mL
row,Structure (SMILES),% from t0 [%]
1,O=c1nc(N2CCN(CC3CCCC(O)C3)CC2)sc2c([N+](=O)[O-])cc(C(F)(F)F)cc12 (stereo not drawn) [Met 3-OH],9

# Same assay, conditions: human, 4 h, 10 ng/mL
row,Structure (SMILES),% from t0 [%]
1,O=c1nc(N2CCN(CC3CCCC(O)C3)CC2)sc2c([N+](=O)[O-])cc(C(F)(F)F)cc12 (stereo not drawn) [Met 3-OH],4

# Same assay, conditions: human, 4 h, 20 ng/mL
row,Structure (SMILES),% from t0 [%]
1,O=c1nc(N2CCN(CC3CCCC(O)C3)CC2)sc2c([N+](=O)[O-])cc(C(F)(F)F)cc12 (stereo not drawn) [Met 3-OH],12

# Same assay, conditions: human, 4 h, 50 ng/mL
row,Structure (SMILES),% from t0 [%]
1,O=c1nc(N2CCN(CC3CCCC(O)C3)CC2)sc2c([N+](=O)[O-])cc(C(F)(F)F)cc12 (stereo not drawn) [Met 3-OH],15

# Same assay, conditions: human, 4 h, 100 ng/mL
row,Structure (SMILES),% from t0 [%]
1,O=c1nc(N2CCN(CC3CCCC(O)C3)CC2)sc2c([N+](=O)[O-])cc(C(F)(F)F)cc12 (stereo not drawn) [Met 3-OH],4

# Same assay, conditions: human, 4 h, 200 ng/mL
row,Structure (SMILES),% from t0 [%]
1,O=c1nc(N2CCN(CC3CCCC(O)C3)CC2)sc2c([N+](=O)[O-])cc(C(F)(F)F)cc12 (stereo not drawn) [Met 3-OH],6

# Same assay, conditions: human, 4 h, 500 ng/mL
row,Structure (SMILES),% from t0 [%]
1,O=c1nc(N2CCN(CC3CCCC(O)C3)CC2)sc2c([N+](=O)[O-])cc(C(F)(F)F)cc12 (stereo not drawn) [Met 3-OH],1

# Tested on: Mycobacterium tuberculosis
# Conditions: not measured in this paper; cited from earlier work
row,Structure (SMILES),anti-TB activity in vitro (active / inactive)
1,O=c1nc(N2CCN(CC3CCCC(O)C3)CC2)sc2c([N+](=O)[O-])cc(C(F)(F)F)cc12 (stereo not drawn) [Met 3-OH],active

# Tested on: not given
# Conditions: human, 6 h, 0.2 ng/mL
row,Structure (SMILES),% from freshly processed samples (n=2) [%]
1,O=c1nc(N2CCN(CC3CCCC(O)C3)CC2)sc2c([N+](=O)[O-])cc(C(F)(F)F)cc12 (stereo not drawn) [Met 3-OH],3

# Same assay, conditions: human, 6 h, 0.5 ng/mL
row,Structure (SMILES),% from freshly processed samples (n=2) [%]
1,O=c1nc(N2CCN(CC3CCCC(O)C3)CC2)sc2c([N+](=O)[O-])cc(C(F)(F)F)cc12 (stereo not drawn) [Met 3-OH],-14

# Same assay, conditions: human, 6 h, 1 ng/mL
row,Structure (SMILES),% from freshly processed samples (n=2) [%]
1,O=c1nc(N2CCN(CC3CCCC(O)C3)CC2)sc2c([N+](=O)[O-])cc(C(F)(F)F)cc12 (stereo not drawn) [Met 3-OH],-13

# Same assay, conditions: human, 6 h, 2 ng/mL
Structure (SMILES),% from freshly prepared samples [%],% from freshly processed samples (n=2) [%]
O=c1nc(N2CCN(CC3CCCC(O)C3)CC2)sc2c([N+](=O)[O-])cc(C(F)(F)F)cc12 (stereo not drawn) [Met 3-OH],-7,-10

# Same assay, conditions: human, 6 h, 50 ng/mL
row,Structure (SMILES),% from freshly processed samples (n=2) [%]
1,O=c1nc(N2CCN(CC3CCCC(O)C3)CC2)sc2c([N+](=O)[O-])cc(C(F)(F)F)cc12 (stereo not drawn) [Met 3-OH],-8

# Same assay, conditions: human, 6 h, 150 ng/mL
row,Structure (SMILES),% from freshly prepared samples [%]
1,O=c1nc(N2CCN(CC3CCCC(O)C3)CC2)sc2c([N+](=O)[O-])cc(C(F)(F)F)cc12 (stereo not drawn) [Met 3-OH],-5

# Same assay, conditions: human, 6 h, 500 ng/mL
row,Structure (SMILES),% from freshly processed samples (n=2) [%]
1,O=c1nc(N2CCN(CC3CCCC(O)C3)CC2)sc2c([N+](=O)[O-])cc(C(F)(F)F)cc12 (stereo not drawn) [Met 3-OH],-6

# Same assay, conditions: human, 6 h, 1000 ng/mL
row,Structure (SMILES),% from freshly processed samples (n=2) [%]
1,O=c1nc(N2CCN(CC3CCCC(O)C3)CC2)sc2c([N+](=O)[O-])cc(C(F)(F)F)cc12 (stereo not drawn) [Met 3-OH],-1

# Same assay, conditions: human, 6 h, 1500 ng/mL
row,Structure (SMILES),% from freshly prepared samples [%]
1,O=c1nc(N2CCN(CC3CCCC(O)C3)CC2)sc2c([N+](=O)[O-])cc(C(F)(F)F)cc12 (stereo not drawn) [Met 3-OH],-4

# Same assay, conditions: human, 6 h, 2000 ng/mL
row,Structure (SMILES),% from freshly processed samples (n=2) [%]
1,O=c1nc(N2CCN(CC3CCCC(O)C3)CC2)sc2c([N+](=O)[O-])cc(C(F)(F)F)cc12 (stereo not drawn) [Met 3-OH],-2

# Tested on: not given
# Conditions: processed extract sample, 4°C, 24h, level H (QC 1500 ng/mL)
row,Structure (SMILES),% from t0 [%]
1,O=c1nc(N2CCN(CC3CCCC(O)C3)CC2)sc2c([N+](=O)[O-])cc(C(F)(F)F)cc12 (stereo not drawn) [Met 3-OH],-2

# Same assay, conditions: processed extract sample, 4°C, 24h, level L (QC 2 ng/mL)
row,Structure (SMILES),% from t0 [%]
1,O=c1nc(N2CCN(CC3CCCC(O)C3)CC2)sc2c([N+](=O)[O-])cc(C(F)(F)F)cc12 (stereo not drawn) [Met 3-OH],-14

# Same assay, conditions: processed extract sample, 4°C, 24h, level M (QC 150 ng/mL)
row,Structure (SMILES),% from t0 [%]
1,O=c1nc(N2CCN(CC3CCCC(O)C3)CC2)sc2c([N+](=O)[O-])cc(C(F)(F)F)cc12 (stereo not drawn) [Met 3-OH],-9

# Same assay, conditions: processed extract sample, RT, 24h, level H (QC 1500 ng/mL)
row,Structure (SMILES),% from t0 [%]
1,O=c1nc(N2CCN(CC3CCCC(O)C3)CC2)sc2c([N+](=O)[O-])cc(C(F)(F)F)cc12 (stereo not drawn) [Met 3-OH],-14

# Same assay, conditions: processed extract sample, RT, 24h, level L (QC 2 ng/mL)
row,Structure (SMILES),% from t0 [%]
1,O=c1nc(N2CCN(CC3CCCC(O)C3)CC2)sc2c([N+](=O)[O-])cc(C(F)(F)F)cc12 (stereo not drawn) [Met 3-OH],-59

# Same assay, conditions: processed extract sample, RT, 24h, level M (QC 150 ng/mL)
row,Structure (SMILES),% from t0 [%]
1,O=c1nc(N2CCN(CC3CCCC(O)C3)CC2)sc2c([N+](=O)[O-])cc(C(F)(F)F)cc12 (stereo not drawn) [Met 3-OH],-36
